Experimental data taken from the supplement of paper PMC10307832.

Assays:
Experiment in all cases: relative viability (nuclei count vs DMSO), 5 days (fraction); higher = more cells survive
[1] = compound: CC(O)(CS(=O)(=O)c1ccc(F)cc1)C(=O)Nc1ccc(C#N)c(C(F)(F)F)c1 [Bicalutamide] + CS(=O)(=O)N1CCN(Cc2cc3nc(-c4cccc5[nH]ncc45)nc(N4CCOCC4)c3s2)CC1 [Pictilisib] (partner 1 µM)
Procedure, shortened: (§1)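 Lung cancer cell lines in 1536-well plates got either a single drug or a fixed anchor-drug dose together with five library-drug doses (not always all listed) in √10 steps, by pin tool, on the day after seeding. Nuclei were counted after 5 days, and relative viability is the treated-to-vehicle ratio of nuclei counts. Values are medians of duplicate plates.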

[2] = compound: CC(O)(CS(=O)(=O)c1ccc(F)cc1)C(=O)Nc1ccc(C#N)c(C(F)(F)F)c1 [Bicalutamide] + CC(=O)c1c(C)c2cnc(Nc3ccc(N4CCNCC4)cn3)nc2n(C2CCCC2)c1=O [Palbociclib] (partner 0.5 µM)
Procedure, shortened: as §1

[3] = compound: CC(O)(CS(=O)(=O)c1ccc(F)cc1)C(=O)Nc1ccc(C#N)c(C(F)(F)F)c1 [Bicalutamide] + O=C(c1cc(Cc2n[nH]c(=O)c3ccccc23)ccc1F)N1CCN(C(=O)C2CC2)CC1 [Olaparib] (partner 8 µM)
Procedure, shortened: as §1

[4] = compound: C(C(=O)C(=O)O)Br [Bromopyruvate] + CC(=O)c1c(C)c2cnc(Nc3ccc(N4CCNCC4)cn3)nc2n(C2CCCC2)c1=O [Palbociclib] (partner 0.5 µM)
Procedure, shortened: as §1

| Cell Line | relative viability ([1]; first compound 0.08 µM) | relative viability ([1]; first compound 0.253 µM) | relative viability ([1]; first compound 0.8 µM) | relative viability ([1]; first compound 2.53 µM) | relative viability ([2]; first compound 0.08 µM) | relative viability ([2]; first compound 0.253 µM) | relative viability ([2]; first compound 0.8 µM) | relative viability ([2]; first compound 2.53 µM) | relative viability ([3]; first compound 0.08 µM) | relative viability ([3]; first compound 0.253 µM) | relative viability ([3]; first compound 0.8 µM) | relative viability ([3]; first compound 2.53 µM) | relative viability ([4]; first compound 1 µM) | relative viability ([4]; first compound 3.162 µM) | relative viability ([4]; first compound 10 µM) | relative viability ([4]; first compound 31.62 µM) | relative viability ([4]; first compound 100 µM) |
| --- | --- | --- | --- | --- | --- | --- | --- | --- | --- | --- | --- | --- | --- | --- | --- | --- | --- |
| NCI-H1975 | 0.291 | 0.331 | 0.329 | 0.233 | 0.627 | 0.532 | 0.688 | 0.492 | 0.81 | 0.772 | 1 | 0.59 | 0.66 | 0.619 | 0.566 | 0.551 | 0.569 |
| NCI-H1993 |  | 0.764 | 0.744 | 0.671 | 0.642 | 0.513 | 0.793 | 0.772 | 1.05 | 0.785 | 1.17 | 1.01 | 0.536 | 0.661 | 0.813 | 0.629 | 0.775 |
| NCI-H2009 | 1.2 | 0.944 | 1.06 | 0.737 | 0.241 | 0.246 | 0.252 | 0.255 | 0.675 | 0.702 | 0.715 | 0.667 | 0.208 | 0.214 | 0.227 | 0.179 | 0.0903 |
| NCI-H2023 | 0.279 | 0.21 | 0.253 | 0.178 | 0.406 | 0.373 | 0.408 | 0.286 | 0.534 | 0.493 | 0.495 | 0.394 | 0.406 | 0.382 | 0.4 | 0.411 | 0.385 |
| NCI-H2085 | 0.445 | 0.461 | 0.442 | 0.39 | 0.494 | 0.465 | 0.478 | 0.468 | 0.758 | 0.865 | 0.773 | 0.781 | 0.491 | 0.469 | 0.489 | 0.539 | 0.521 |
| NCI-H2087 | 0.84 | 0.891 | 1.05 | 0.835 | 0.222 | 0.272 | 0.237 | 0.24 | 0.527 | 0.51 | 0.75 | 0.572 | 0.222 | 0.232 | 0.19 | 0.221 | 0.227 |
| NCI-H2126 | 0.494 | 0.468 | 0.511 | 0.43 | 0.339 | 0.339 | 0.344 | 0.32 | 0.989 | 0.913 | 1.01 | 0.859 | 0.34 | 0.335 | 0.306 | 0.375 | 0.343 |
| NCI-H2170 | 0.308 | 0.298 | 0.289 | 0.302 | 0.378 | 0.34 | 0.438 | 0.397 | 0.612 | 0.572 | 0.536 | 0.645 | 0.365 | 0.421 | 0.389 | 0.396 | 0.411 |
| NCI-H2228 | 0.347 | 0.341 | 0.425 | 0.409 | 0.797 | 0.775 | 0.745 | 0.779 | 0.748 | 0.536 | 1.16 | 0.524 | 0.791 | 0.9 | 0.665 | 0.85 | 0.775 |
